“And” between values parts separate entries of the source, which are not always exact repeats. Identical values can stand only once.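 Results reflect a 48-hour exposure of cells in 96-well plates to compound at five concentrations. GI50 is the concentration that inhibits growth by half. TGI marks complete inhibition of growth.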
Key:
Experiment in all cases: DTP human tumour cell line panel, 48 h
NCI-H522 lung = tested on: NCI-H522 lung
ACHN renal = tested on: ACHN renal
HT29 colon = tested on: HT29 colon
HOP-62 NSCLC = tested on: HOP-62 NSCLC
KM12 colon = tested on: KM12 colon
SK-MEL-28 melanoma = tested on: SK-MEL-28 melanoma
OVCAR-8 ovarian = tested on: OVCAR-8 ovarian
CCRF-CEM leukemia = tested on: CCRF-CEM leukemia
SR leukemia = tested on: SR leukemia
NCI/ADR-RES ovarian = tested on: NCI/ADR-RES ovarian

Compound	TGI (NCI-H522 lung)	TGI (ACHN renal)	TGI (HT29 colon) [µM]	TGI (HOP-62 NSCLC)	TGI (KM12 colon) [µM]	TGI (SK-MEL-28 melanoma)	TGI (OVCAR-8 ovarian) [µM]	TGI (CCRF-CEM leukemia)	TGI (SR leukemia) [µM]	TGI (NCI/ADR-RES ovarian) [µM]	GI50 (ACHN renal) [µM]	GI50 (HT29 colon) [µM]	GI50 (HOP-62 NSCLC) [µM]	GI50 (KM12 colon) [µM]	GI50 (SK-MEL-28 melanoma) [µM]	GI50 (OVCAR-8 ovarian) [µM]	GI50 (CCRF-CEM leukemia) [µM]	GI50 (NCI/ADR-RES ovarian) [µM]	GI50 (SR leukemia) [µM]	GI50 (NCI-H522 lung) [µM]
CCC(=O)C(C)C(=O)C(=O)C(=O)OC (stereo not given)	> 100 µM	> 100 µM	> 100	> 100 µM	> 100	> 100 µM	> 100	> 69.1 µM	> 100	–	–	–	–	–	–	–	–	–	–	–
O=C1[C@H]2ON(c3ccccc3)C(c3ccccc3F)[C@H]2C(=O)N1c1ccc(Cc2ccc(N3C(=O)[C@@H]4ON(c5ccccc5)C(c5ccccc5F)[C@@H]4C3=O)cc2)cc1 (stereo not given in full)	–	> 100 µM	> 100	> 100 µM	> 100	> 100 µM	–	> 100 µM	–	–	–	–	–	–	–	–	–	–	–	–
COc1cc(C=O)c(-c2cc3c(cc2C2(C)OCCS2)OCO3)c(OC)c1OC (stereo not given)	13 µM	> 99.1 µM	20.7	47.1 µM	34	26 µM	> 75.1	> 160 µM	50	–	–	–	–	–	–	–	–	–	–	–
CN(C(=O)C12C3(C(=O)C(C)(C)C)C4C5(C#N)C3C1(C(=O)C(C)(C)C)C5C42C(=O)C(C)(C)C)C(C)(C)C (stereo not given)	> 50 µM	> 50 µM	> 50	> 50 µM	> 50	> 50 µM	> 50	> 50 µM	> 50	–	–	–	–	–	–	–	–	–	–	–
O=C(O)C(C(=O)C(=O)C(C(=O)O)c1ccc(Cl)cc1)c1ccc(Cl)cc1 (stereo not given)	4.45 µM	12.8 µM	11.1	16.9 µM	13.4	15.7 µM	6.23	10 µM	6	–	–	–	–	–	–	–	–	–	–	–
CCCCN=C(NC#N)N(Cc1ccccc1)Cc1ccccc1	31.1 µM	98.8 µM	28.7	62 µM	> 100	81.2 µM	> 100	49.2 µM	–	–	–	–	–	–	–	–	–	–	–	–
O=c1cc(-c2ccccc2)nc(/C=C(\O)c2ccncc2)n1-c1ccccc1	> 100 µM	> 100 µM	> 100	> 100 µM	> 100	> 100 µM	> 100	> 100 µM	–	–	–	–	–	–	–	–	–	–	–	–
COc1ccc2nc(NCN3C(=O)c4ccccc4C3=O)sc2c1	> 100 µM	> 100 µM	> 100	> 100 µM	> 100	> 100 µM	> 100	> 100 µM	–	> 100	–	–	–	–	–	–	–	–	–	–
COc1ccc(SC2c3ccc(C)cc3Oc3nc(N)c(C#N)c(N)c32)cc1 (stereo not given)	–	3.15 µM	4.83	3.18 µM	3.05	3.2 µM	3.06	7.67 µM	–	–	1.76	2.31	1.71	1.61	1.75	1.64	2.85	–	–	–
NC(=O)C(=Cc1ccc(CP(=O)(O)O)cc1)C(N)=O	> 100 µM	> 100 µM	> 100	> 100 µM	> 100	> 100 µM	> 100	–	–	–	–	–	–	–	–	–	–	–	–	–
CN(C)C(=S)/N=c1\ss/c(=N\C(=S)N(C)C)n1-c1ccc(Cl)cc1	> 100 µM	> 100 µM	> 100	> 100 µM	> 100	> 100 µM	> 100	> 100 µM	> 100	–	–	–	–	–	–	–	–	–	–	–
CCn1c2ccc(C(=O)CCCN(C)C)cc2c2cc(C(=O)CCCN(C)C)ccc21	8.68 µM	6.06 µM	4.24	3.48 µM	11.2	18.3 µM	7.59	10.1 µM	–	21.9	–	–	–	–	–	–	–	–	–	–
NC(CC(=O)Nc1ccc(Cl)cc1)=Nc1ccccc1	> 100 µM	> 100 µM	> 100	> 100 µM	> 100	> 100 µM	> 100	–	> 100	–	–	–	–	–	–	–	–	–	–	–
O=C(/C=C/c1cccc([N+](=O)[O-])c1)c1ccc(O)c(CN2CCN(c3cc4c(cc3F)c(=O)c(C(=O)O)cn4C3CC3)CC2)c1	–	2.7 µM	6.25	16.8 µM	3.4	3.2 µM	8.77	10.8 µM	53.2	9.34	1.4	2.44	3.47	1.33	1.75	2.52	1.6	2.85	0.398	–
COC(=O)c1ccc(NC(=O)c2cc(OC)c(OC)c(OC)c2)cc1	3.58 µM	> 100 µM	> 100	> 100 µM	> 100	> 100 µM	> 100	> 100 µM	> 72.8	–	–	–	–	–	–	–	–	–	–	–
CC(C)N1CCC2(CC1)NNc1ncccc1-n1cccc12	> 100 µM	> 100 µM	> 100	> 100 µM	> 100	> 100 µM	> 100	> 100 µM	–	–	–	–	–	–	–	–	–	–	–	–
Cc1ccc(C(=O)N2CCN(C(=O)c3ccc(C)cc3)c3ccccc32)cc1	5.96 µM	> 100 µM	21.3	> 100 µM	> 100	> 100 µM	> 100	> 100 µM	> 100	–	–	–	–	–	–	–	–	–	–	–
CC(=O)OC(C)(C)/C=C/C(=O)[C@](C)(O)[C@H]1[C@H](O)C[C@@]2(C)[C@@H]3CC=C4[C@@H](C[C@H](O)C(=O)C4(C)C)[C@]3(CO)C(=O)C[C@]12C	0.855 µM and 0.675 µM	0.882 µM and 0.844 µM	–	0.528 µM and 0.482 µM	32.7	0.697 µM and 0.254 µM	23.8	0.96 µM and 2.62 µM	29.4	–	–	0.276	–	0.703	0.034	–	0.0959	–	0.462	0.112
CCOC(=O)c1cc2c(cn1)[nH]c1cccc(N)c12	> 100 µM	> 100 µM	> 100	> 100 µM	> 100	> 100 µM	> 100	> 100 µM	> 100	–	–	–	–	–	–	–	–	–	–	–
Nc1nc(NC2C=C(CO)C(O)C2O)c([N+](=O)[O-])c(=O)[nH]1 (stereo not given)	> 100 µM	> 100 µM	> 100	> 100 µM	> 100	> 100 µM	> 100	> 100 µM	> 100	–	–	–	–	–	–	–	–	–	–	–
O=c1cc(-c2ccccc2)[nH]c2c(Cl)cccc12	–	> 100 µM	> 100	> 100 µM	–	> 100 µM	> 100	> 100 µM	> 100	–	–	–	–	–	–	–	–	–	–	–
CCOc1ccccc1N1C(=O)C(=O)C(c2nc3ccccc3o2)/C(=N\N)C1=O (stereo not given)	> 100 µM	> 100 µM	> 100	> 100 µM	> 100	> 100 µM	> 100	> 100 µM	–	–	–	–	–	–	–	–	–	–	–	–
